# ChEMBL document CHEMBL2380228, “Nucleotide competing reverse transcriptase inhibitors: discovery of a series of non-basic benzofurano[3,2-d]pyrimidin-2-one derived inhibitors” (Bioorg Med Chem Lett, 2013)
# Legend:
# [1] = test system: Human immunodeficiency virus type 1 BH10; assay: Inhibition of HIV-1 BH10 reverse transcriptase using poly(rA)/oligo(dT)15 as substrate at > 685 nM after 60 mins by plate reader analysis
# [2] = Inhibition of HIV-1 BH10 reverse transcriptase using poly(rA)/oligo(dT)15 as substrate after 60 mins by plate reader analysis; set-up: species or system Human immunodeficiency virus type 1 BH10
# [3] = Permeability from apical to basolateral side of human Caco2 cells; format: ADME, cell-based; details: Caco-2, read-out: permeability
# [4] = Clearance in human liver microsomes at 1 uM by LC-MS/MS analysis relative to hepatic blood flow; format: ADME, Microsome; details: read-out: CLH
# [5] = Cytotoxicity against human C8166-LTR-Luc cells after 3 days by MTT assay; format: cell-based
# [6] = test system: Human immunodeficiency virus 1; assay: Antiviral activity against wild type HIV1-infected human C8166 cells after 1.5 hrs by luciferase reporter gene assay; format: functional, organism-based; details: Human immunodeficiency virus 1, C8166, 1.5 h
# [7] = Cytotoxicity against human C8166-LTR-Luc cells assessed as inhibition of cell viability at > 3.6 uM after 3 days by MTT assay; format: cell-based; details: read-out: INH
# [8] = Solubility of the compound in phosphate buffer at pH 6.8 after 24 hrs at 25 degC by LC-MS analysis; format: physicochemical
# [9] = Solubility of the compound in phosphate buffer at pH 2.0 after 24 hrs at 25 degC by LC-MS analysis; format: physicochemical
# [10] = Lipophilicity, log D of the compound in n-octanol buffer at 0.5 mg after 2 to 24 hrs by LC-MS analysis; format: physicochemical
# [11] = test system: Human immunodeficiency virus type 1 BH10; assay: Inhibition of HIV-1 BH10 reverse transcriptase using poly(rA)/oligo(dT)15 as substrate at > 4700 nM after 60 mins by plate reader analysis
# [12] = test system: Human immunodeficiency virus type 1 BH10; assay: Inhibition of HIV-1 BH10 reverse transcriptase using poly(rA)/oligo(dT)15 as substrate at > 365 nM after 60 mins by plate reader analysis
# [13] = test system: Human immunodeficiency virus type 1 BH10; assay: Inhibition of HIV-1 BH10 reverse transcriptase using poly(rA)/oligo(dT)15 as substrate at > 1100 nM after 60 mins by plate reader analysis
# [14] = Clearance in rat liver microsomes at 1 uM by LC-MS/MS analysis relative to hepatic blood flow; format: ADME, Microsome; details: read-out: CLH
SMILES,IC50 [2],Papp A→B [3],hepatic extraction ratio at 1 µM [4],CC50 at 72 h [5],EC50 [6],other results
CCCn1c(=O)nc(-c2ccccc2)c2oc3ccc(-c4ccc(CN(C)C)cc4)cc3c21,> 685 nM,–,–,–,–,inhibition [1]: 45%
CN(C)Cc1ccc(-c2ccc3oc4c(-c5ccccc5)nc(=O)n(-c5ccc([N+](=O)[O-])cc5)c4c3c2)cc1,1.7 nM,–,–,–,–,–
CN(C)Cc1ccc(-c2ccc3oc4c(-c5ccccc5)nc(=O)n(-c5ccccc5)c4c3c2)cc1,245 nM,–,–,–,–,–
CC(C)n1c(=O)nc(-c2ccccc2)c2oc3ccc(-c4ccc(CN(C)C)cc4)cc3c21,800 nM,–,–,–,–,–
CCNCC(=O)Nc1ccc(-c2nc(=O)n(CCCOC)c3c2oc2ccc(Cl)cc23)cc1,2.8 nM,< 0.1 ×10⁻⁶ cm/s,0.46,> 8600 nM,33 nM,–
CN(C)Cc1ccc(-c2ccc3oc4c(-c5ccccc5)nc(=O)n(C)c4c3c2)cc1,645 nM,–,–,–,–,–
COCCCn1c(=O)nc(-c2ccc(N3CCN(C(C)C)CC3)cc2)c2oc3ccc(Cl)cc3c21,9.1 nM,2.7 ×10⁻⁶ cm/s,0.51,2300 nM,35 nM,–
COCCCn1c(=O)nc(-c2ccc(N3CCN(C4CC4)CC3)cc2)c2oc3ccc(Cl)cc3c21,13 nM,8.9 ×10⁻⁶ cm/s,0.52,> 3600 nM,290 nM,cytotoxicity at 72 h [7]: 20%
CNc1ccc(-c2nc(=O)n(CCC3CCCO3)c3c2oc2ccc(-c4cnn(C)c4)cc23)cn1 (racemic),1.5 nM,3.1 ×10⁻⁶ cm/s,0.61,3800 nM,13 nM,solubility at 24 h [8]: > 984 µg/mL; solubility at 24 h [9]: > 1000 µg/mL; logD [10]: 3.4
CN(C)Cc1ccc(-c2ccc3oc4c(-c5ccccc5)nc(=O)n(CCCC(=O)O)c4c3c2)cc1,> 4700 nM,–,–,–,–,inhibition [11]: 46%
CC(C)Cn1c(=O)nc(-c2ccccc2)c2oc3ccc(-c4ccc(CN(C)C)cc4)cc3c21,655 nM,–,–,–,–,–
COCCCn1c(=O)nc(-c2ccc(N3CCNCC3)cc2)c2oc3ccc(Cl)cc3c21,1.7 nM,0.3 ×10⁻⁶ cm/s,0.28,2700 nM,25 nM,–
CCCCn1c(=O)nc(-c2ccccc2)c2oc3ccc(-c4ccc(CN(C)C)cc4)cc3c21,42 nM,–,–,–,–,–
CCCCCn1c(=O)nc(-c2ccc(NC)nc2)c2oc3ccc(-c4cnn(C)c4)cc3c21,2 nM,9.8 ×10⁻⁶ cm/s,0.81,4000 nM,18 nM,solubility at 24 h [8]: 0.27 µg/mL; solubility at 24 h [9]: > 1000 µg/mL; logD [10]: 4.7
CC(C)CCCn1c(=O)nc(-c2ccccc2)c2oc3ccc(-c4ccc(CN(C)C)cc4)cc3c21,55 nM,–,–,–,–,–
CC(C)CCn1c(=O)nc(-c2ccccc2)c2oc3ccc(-c4ccc(CN(C)C)cc4)cc3c21,190 nM,–,–,–,–,–
CN(C)Cc1ccc(-c2ccc3oc4c(-c5ccccc5)nc(=O)n(CCCc5ccccc5)c4c3c2)cc1,> 365 nM,–,–,–,–,inhibition [12]: 25%

SMILES,IC50 [2],Papp A→B [3],hepatic extraction ratio at 1 µM [4],CC50 at 72 h [5],EC50 [6],other results
CCCCCn1c(=O)nc(-c2ccccc2)c2oc3ccc(-c4ccc(CN(C)C)cc4)cc3c21,27 nM,–,–,–,–,–
Cc1ccc(-n2c(=O)nc(-c3ccccc3)c3oc4ccc(-c5ccc(CN(C)C)cc5)cc4c32)cc1C#N,7.3 nM,–,–,–,–,–
COCCCn1c(=O)nc(-c2ccc(N3CCN(C(C)C)CC3)nc2)c2oc3ccc(Cl)cc3c21,3 nM,2.6 ×10⁻⁶ cm/s,0.59,> 3200 nM,37 nM,–
COC[C@H](C)Cn1c(=O)nc(-c2ccccc2)c2oc3ccc(-c4ccc(CN(C)C)cc4)cc3c21,195 nM,–,–,–,–,–
COCCCn1c(=O)nc(-c2ccc(N3CCN(CCOC)CC3)nc2)c2oc3ccc(Cl)cc3c21,8 nM,12 ×10⁻⁶ cm/s,0.78,–,56 nM,–
CCn1c(=O)nc(-c2ccccc2)c2oc3ccc(-c4ccc(CN(C)C)cc4)cc3c21,890 nM,–,–,–,–,–
CNc1ccc(-c2nc(=O)n(CC[C@H]3CCCO3)c3c2oc2ncc(-c4cnn(C)c4)cc23)cn1,–,–,–,–,–,solubility at 24 h [8]: 1.2 µg/mL; solubility at 24 h [9]: > 871 µg/mL
COCCCn1c(=O)nc(-c2ccc(N3CCN(C)CC3)nc2)c2oc3ccc(-c4cnn(C)c4)cc3c21,3 nM,0.4 ×10⁻⁶ cm/s,0.67,> 21700 nM,6 nM,solubility at 24 h [8]: > 1000 µg/mL; solubility at 24 h [9]: > 1000 µg/mL; logD [10]: 3
COCCCn1c(=O)nc(-c2ccccc2)c2oc3ccc(-c4ccc(CN(C)C)cc4)cc3c21,39 nM,–,–,–,–,–
COCCn1c(=O)nc(-c2ccccc2)c2oc3ccc(-c4ccc(CN(C)C)cc4)cc3c21,2330 nM,–,–,–,–,–
CNc1ccc(-c2nc(=O)n(CC[C@@H]3CCCO3)c3c2oc2ncc(-c4cnn(C)c4)cc23)cn1,–,–,–,–,–,solubility at 24 h [8]: > 928 µg/mL; solubility at 24 h [9]: > 844 µg/mL
CCOC(=O)CCCn1c(=O)nc(-c2ccccc2)c2oc3ccc(-c4ccc(CN(C)C)cc4)cc3c21,> 1100 nM,–,–,–,–,inhibition [13]: 14%
COCCCn1c(=O)nc(-c2ccc(N3CCN(CCOC)CC3)cc2)c2oc3ccc(Cl)cc3c21,10 nM,8 ×10⁻⁶ cm/s,0.61,> 4200 nM,130 nM,–
CCNCC(=O)Nc1ccc(-c2nc(=O)n(CCOC)c3c2oc2ccc(-c4ccc5c(c4)CCN(C)C5)cc23)cc1,4 nM,< 0.1 ×10⁻⁶ cm/s,0.29,4100 nM,30 nM,hepatic extraction ratio at 1 µM [14]: 0.11
COC[C@@H](C)Cn1c(=O)nc(-c2ccccc2)c2oc3ccc(-c4ccc(CN(C)C)cc4)cc3c21,635 nM,–,–,–,–,–
CNc1ccc(-c2nc(=O)n(CCCOC)c3c2oc2ccc(-c4cnn(C)c4)cc23)cn1,4 nM,1.6 ×10⁻⁶ cm/s,0.5,> 17000 nM,148 nM,solubility at 24 h [8]: > 1000 µg/mL; solubility at 24 h [9]: > 1000 µg/mL
COCCCCn1c(=O)nc(-c2ccccc2)c2oc3ccc(-c4ccc(CN(C)C)cc4)cc3c21,86 nM,–,–,–,–,–
